According to patent US10071989B2, “Substituted cinnamamide derivative, preparation method and use thereof” (TASLY PHARMACEUTICAL GROUP CO., LTD., priority 2011, dated 2018):
“Also recorded” adds a separate entry of the source. Where a name gives a salt, the structure may show the parent alone. Read-outs that look alike come from different tables or passages of the source. Marks after values point to notes of the source that are not given here.

What was measured:
Type in all cases: in vivo
C57BL/6 mice [1] = experiment: Number of autonomic activity of mice (YLS-1A autonomic activity recorder); details: for Number of Autonomic activity (time): 10 mg/kg intragastric once daily, counted 30 min after administration at 6th day; for Effect on autonomic activity of mice (in words): 10 mg/kg intragastric, one week, compared with the solvent control group
Procedure: 110 mice were randomly selected to observe the number of their autonomic activity. The mice was placed into the YLS-1A multi-functional mice autonomic activity recorder, and after 1 min of adaption, the mice's activity was counted within a time period from the end of 1st min to 4th min. 96 mice with the number of autonomic activity between 70˜140 were screened out, divided randomly into 8 groups, and intragastrically administrated with the drug compounds at a dose listed in Table 1, one time daily for 7 days consecutively. The solvent control group was administrated with 2% Tween-80 aqueous solution in the same volume. All mice were placed into the autonomic activity recorder 30 min after administration at 6th day. After 1 min of adaption, the mice's activity was counted within a time period from the end of 1st min to 4th min.
(§1) 130 mice were randomly selected to observe the number of their autonomic activity. The method was the same with that of Experiment 1. 108 mice with the number of autonomic activity between 70˜140 were screened out, divided randomly into 9 groups, and intragastrically administrated with the drug compounds at a dose listed in Table 2, one time daily for 7 days consecutively. The solvent control group was administrated with 2% Tween-80 aqueous solution in the same volume. 30 min after administration at 6th day, the number of the autonomic activity of each mouse was observed. 30 min after administration at 7th day, the immobility time in tail suspension test was observed. The method was the same with that in Experiment 1.

C57BL/6 mice [2] = experiment: Depression model test of anti-blepharoptosis caused by reserpine (akinesia, blepharoptosis, shell temperature); details: for Blepharoptosis, “out-of-circle” ratio and shell temperature after reserpine (effect in words) / Change in the shell temperature (ΔT ° C.) / Degree of eye-closure / responders at 10 mg/kg / Change in the shell temperature (T ° C.): 10 mg/kg intragastric 7 days; for Blepharoptosis, “out-of-circle” ratio and shell temperature after reserpine (effect in words): compared with the solvent control group; for “out-of-circle” ratio after reserpine compared with I-1 (in words): compared with I-1, p<0.05; for Change in the shell temperature (ΔT ° C.) / Degree of eye-closure / responders at 10 mg/kg / Change in the shell temperature (T ° C.): reserpine 4 mg/kg i.p.; for Change in the shell temperature (ΔT ° C.) / Change in the shell temperature (T ° C.): abdomen, two hours after reserpine; for Change in the shell temperature (ΔT ° C.) / Degree of eye-closure / Change in the shell temperature (T ° C.): ±SD; for Degree of eye-closure: score 0-4 one hour after reserpine; for responders at 10 mg/kg: Mus musculus, po, 1 h, one hour after reserpine, 7.5 cm circle, 15-second observation, read-out: “out-of-circle” ratio
Procedure: 120 male C57BL/6 mice were randomly selected to observe the number of their autonomic activity. The mice was placed into the YLS-1A multi-functional mice autonomic activity recorder, and after 1 min of adaption, the activity of the mice was counted within a time period from the end of 1st min to 4th min. 96 mice with the number of autonomic activity between 70˜140 were screened out, divided randomly into 8 groups, and intragastrically administrated with the drug compounds at a dose listed in Table 3, one time daily for 7 days consecutively. The solvent control group was administrated with 2% Tween-80 aqueous solution in the same volume. Except the normal control group, 30 min after the last administration, each group was injected intraperitoneally with reserpine at a dose of 4 mg/kg. Next, akinesia, blepharoptosis and shell temperature were observed.
I Akinesia: one hour after intraperitoneal injection of reserpine, the mice were placed at the center of a circle with a diameter of 7.5 cm for a 15-second observation to calculate the “out-of-circle” ratio.
II Blepharoptosis: one hour after intraperitoneal injection of reserpine, the eye closure of mice was observed and scored by the following standard: eyelids open, 0; eyelids ¼ closed, 1; eyelids 2/4 closed, 2; eyelids ¾ closed, 3; eyelids closed completely, 4.
III Shell temperature: two hours after intraperitoneal injection of reserpine, the shell temperature of the abdomen of the mice was measured.
120 C57BL/6 mice were randomly selected to observe the number of their autonomic activity. The method was the same with that of Experiment 1. 100 mice with the number of autonomic activity between 70˜140 were screened out, divided randomly into 10 groups, and intragastrically administrated with the drug compounds at a dose listed in Table 4, one time daily for 7 days consecutively. The mice in the normal group and the solvent control group were administrated with 2% Tween-80 aqueous solution in the same volume. Except the normal control group, 30 min after the last administration, each group was injected intraperitoneally with reserpine at a dose of 4 mg/kg. Next, akinesia, blepharoptosis and shell temperature were observed. Observation method was the same with that of Experiment 1.

C57BL/6 mice [3] = experiment: "Acquired despair" depression model of tail suspension test in mice; details: for Effect on immobility time in tail suspension test (in words): 10 mg/kg intragastric for 7 days, compared with the solvent control group
Procedure: 30 min after administration at 7th day, the mice was fixed on a sustainer with a rubberized cloth at 1 cm close to the end of the tail of mice, making the mice hanged upside down. The head of the mice was about 30 cm above the table and its sight was separated from the neighboring mouse with a plate. Usually, the mice might manage to struggle in hopes of overcoming the abnormal body position. […] The accumulated immobility time within 6 min of each mouse was observed, which was regarded as “despair time”.
as §1

mice = experiment: Anti-depression effect in the tested models (overall conclusion); details: in the tested model at the tested dose
Description: Based on the aforesaid experiments, the following conclusion can be drawn: • 1.

C57BL/6 mice [4] = experiment: Forced swimming experiment in mice; details: 10 mg/kg intragastric once daily for 7 days; 30 min after last administration; end of 2nd min to 6th min
Procedure: After 1˜2 days of adaptive feed, 80 male C57BL/6 mice, aged 6˜8 weeks and weighing 18˜22 g, were placed into the YLS-1A multi-functional mice autonomic activity recorder. After 1 min of adaption, the activity of the mice was counted within a time period from the end of 1st min to 4th min. 60 mice with the number of autonomic activity between 70˜140 were screened out, divided randomly into 6 groups, and intragastrically administrated with the drug compounds at a dose listed in Table 5, one time daily for 7 days consecutively. The solvent control group was administrated with 2% Tween-80 aqueous solution in the same volume. After the administration at 6th day, the mice were placed into a cylindrical aquarium with a water depth of 10 cm and 25° C. to force the mice to swim. After 15 min, the mice were taken out, dried and returned to the cage. 24 hours later, 30 min after the last intragastrical administration, the mice were placed into a glass bottle with a diameter of 10 cm, a height of 30 cm and a water depth of 10 cm, and the temperature of the water in the bottle was at 25° C. The mice were separated with an opaque partition, so as not to influence each other. After 2 min of adaption, an accumulated immobility time from the end of 2nd min to 6th min was recorded.

[5] = Experiment 1, end of 1st min to 4th min

Structure (SMILES) | Number of Autonomic activity (time) (C57BL/6 mice [1]; [5]) | Blepharoptosis, “out-of-circle” ratio and shell temperature after reserpine (effect in words) (C57BL/6 mice [2]) | “out-of-circle” ratio after reserpine compared with I-1 (in words) (C57BL/6 mice [2]; 10 mg/kg) | Change in the shell temperature (ΔT ° C.) (C57BL/6 mice [2]; Experiment 1) [°C] | Degree of eye-closure (C57BL/6 mice [2]; Experiment 1) | responders at 10 mg/kg (C57BL/6 mice [2]; Experiment 1) [%] | Degree of eye closure / blepharoptosis after reserpine compared with I-1 (in words) (C57BL/6 mice [2]; 10 mg/kg) | Effect on autonomic activity of mice (in words) (C57BL/6 mice [1]) | Effect on immobility time in tail suspension test (in words) (C57BL/6 mice [3]) | Effect on antagonizing immobility in tail suspension test compared with I-1 (in words) (C57BL/6 mice [3]; 10 mg/kg, compared with I-1, p<0.05) | Improving akinesia, blepharoptosis and shell temperature: ranking among the tested compounds (in words) (C57BL/6 mice [2]; 10 mg/kg, within the experiment) | Anti-depression effect compared with the pharmacologic effect of I-1 (in words) (mice) | Number of Autonomic activity (time) (C57BL/6 mice [1]; Experiment 2) | Change in the shell temperature (T ° C.) (C57BL/6 mice [2]; Experiment 2) [°C] | Degree of eye-closure (C57BL/6 mice [2]; Experiment 2) | responders at 10 mg/kg (C57BL/6 mice [2]; Experiment 2) [%] | Blepharoptosis, “out-of-circle” ratio and shell temperature after reserpine (effect in words) (C57BL/6 mice [2]; hydrochloride) | Immobility time in the forced swimming test in mice(s) (C57BL/6 mice [4])
CC(C)CNC(=O)/C=C/c1cc2c(c([N+](=O)[O-])c1)OCO2 [Compound I-2, N-isobutyl-5′-nitro-3′,4′-methylenedioxy cinnamamide] | 102.00 ± 26.24 | improved significantly | increased markedly | 1.60 ± 0.18 | 1.67 ± 1.30 | 83 | – | – | – | – | – | – | – | – | – | – | – | –
CC(C)CNC(=O)/C=C/c1cc(I)c2c(c1)OCO2 [Compound I-3, N-isobutyl-5′-iodo-3′,4′-methylenedioxy cinnamamide] | 94.42 ± 23.97 | improved significantly | increased markedly | 1.72 ± 0.26 | 1.00 ± 1.13**^ΔΔ | 92 | reduced | – | – | – | – | – | – | – | – | – | – | –
CC(C)CNC(=O)/C=C/c1cc(Cl)c2c(c1)OCO2 [Compound I-4, N-isobutyl-5′-chloro-3′,4′-methylenedioxy cinnamamide] | 94.75 ± 28.53 | improved significantly; also recorded: antagonizing the decrease of shell temperature, akinesia and improving the degree of eye closure | increased markedly | 1.51 ± 0.31 | 0.17 ± 0.39**^ΔΔ | 100 | reduced | had no affect | remarkably reduce the immobility time; also recorded: significantly shorten the immobility time | better effect | best effect | increased to some degree | – | – | – | – | – | –
COc1cc(/C=C/C=C/C(=O)NCC(C)C)cc2c1OCO2 [Compound I-6, N-isobutyl-5-(5′-methoxy-3′,4′-methylenedioxyphenyl)pentadienamide] | 98.83 ± 17.56 | improved significantly | increased markedly | 1.84 ± 0.22 | 2.08 ± 1.68 | 67 | – | – | – | – | – | – | – | – | – | – | – | –
CN(C)C(=O)/C=C/c1cc2c(c(C(F)(F)F)c1)OCO2 [Compound I-8, N,N-dimethyl-5′-trifluoromethyl-3′,4′-methylenedioxy cinnamamide] | – | remarkably improve; also recorded: antagonizing the decrease of shell temperature, akinesia and improving the degree of eye closure | – | – | – | – | – | – | – | – | – | – | 84.00 ± 21.81 | 27.60 ± 0.88 | 2.30 ± 1.64 | 40 | – | –
CCN(CC)C(=O)/C=C/c1cc2c(c(C(F)(F)F)c1)OCO2 [Compound I-9, N,N-diethyl-5′-trifluoromethyl-3′,4′-methylenedioxy cinnamamide] | – | remarkably improve; also recorded: antagonizing the decrease of shell temperature, akinesia and improving the degree of eye closure | – | – | – | – | increased improvement | had no effect | reduce the immobility time of the mice in tail suspension test significantly; also recorded: significantly shorten the immobility time | – | – | increased to some degree | 83.60 ± 22.68 | 28.70 ± 1.78 | 1.80 ± 1.23 | 30 | – | –
CNCCC(Oc1ccc(C(F)(F)F)cc1)c1ccccc1 (stereo not drawn) [fluoxetine hydrochloride, Fluoxetine hydrochloride, reference compound] | 121.75 ± 24.14 | – | – | 1.89 ± 0.21 | 1.42 ± 1.38**Δ | 58 | – | had no effect | reduce the immobility time in tail suspension test significantly | – | – | – | 102.0 ± 14.91 | 29.20 ± 0.54 | 2.00 ± 1.33 | 50 | obviously increase mice “out-of-circle” ratio and shell temperature, and significantly reduce the degree of eye closure of the mice; also recorded: improve the “out-of-circle” ratio obviously, and significantly reduce the degree of eye closure and raise the shell temperature | 98.96 ± 32.43
